Measured values: patent publication US6737383B1, “Herbicidal oxadiazolidines” (priority 1999, dated 2004)

What was measured:
duck salad = assay: Test B flood test duck salad; type: in vivo, Heteranthera limosa
How it was run: (§1)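 Plants were grown to the 2-leaf stage before treatment with test chemical, then held in a greenhouse for twelve to sixteen days. Injury was visually rated against untreated controls on a 0–10 scale, where 0 is no effect and 10 is complete control.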

smallflower flatsedge = assay: Test B flood test smallflower flatsedge; type: in vivo, Cyperus difformis
How it was run: as §1

soybean = assay: Test B pre/postemergence soybean; type: in vivo, Glycine max
How it was run: (§2)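 Response is a visual 0-to-10 score relative to untreated plants, where 0 means no effect and 10 means complete control, taken twelve to sixteen days after application. Treatments went onto soil at planting and onto foliage of 1- to 4-leaf plants, using a surfactant-containing non-phytotoxic solvent.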

velvetleaf = assay: Test B pre/postemergence velvetleaf; type: in vivo, Abutilon theophrasti
How it was run: as §2

purple nutsedge = assay: Test B pre/postemergence purple nutsedge; type: in vivo, Cyperus rotundus
How it was run: as §2

surinam grass = assay: Test B pre/postemergence surinam grass; type: in vivo, Brachiaria decumbens
How it was run: as §2

wheat = assay: Test B pre/postemergence wheat; type: in vivo, Triticum aestivum
How it was run: as §2

morningglory = assay: Test B pre/postemergence morningglory; type: in vivo, Ipomoea hederacea
How it was run: as §2

corn = assay: Test B pre/postemergence corn; type: in vivo, Zea mays
How it was run: as §2

rice = assay: Test B flood test rice; type: in vivo, Oryza sativa
How it was run: as §1

bedstraw = assay: Test B pre/postemergence bedstraw; type: in vivo, Galium aparine; conditions: for Bedstraw plant response rating: Postemergence
How it was run: as §2

rape = assay: Test B pre/postemergence rape; type: in vivo, Brassica napus
How it was run: as §2

crabgrass = assay: Test B pre/postemergence crabgrass; type: in vivo, Digitaria sanguinalis
How it was run: as §2

blackgrass = assay: Test B pre/postemergence blackgrass; type: in vivo, Alopecurus myosuroides
How it was run: as §2

giant foxtail = assay: Test B pre/postemergence giant foxtail; type: in vivo, Setaria faberii
How it was run: as §2

wild oat = assay: Test B pre/postemergence wild oat; type: in vivo, Avena fatua
How it was run: as §2

[1] = Rate 62 g/ha, headed Pre-emergence (flood test species), scale 0 to 10 (0 no effect, 10 complete control)
[2] = Rate 125 g/ha, Pre-emergence, flood test species, scale 0 to 10 where 0 is no effect and 10 is complete control
[3] = Rate 250 g/ha, Pre-emergence, flood-test species, scale 0 to 10, 0 is no effect, 10 is complete control
[4] = Rate 500 g/ha, Pre-emergence, flood test species, scale 0 to 10 (0 no effect, 10 complete control)
[5] = Preemergence, Rate 62 g/ha, scale of 0 to 10 where 0 is no effect and 10 is complete control
[6] = Preemergence, Rate 250 g/ha, scale of 0 to 10 where 0 is no effect and 10 is complete control
[7] = Preemergence, Rate 500 g/ha, scale of 0 to 10 where 0 is no effect and 10 is complete control
[8] = Rate 62 g/ha, Postemergence, scale 0 to 10 (0 no effect, 10 complete control)
[9] = Rate 125 g/ha, Postemergence, scale of 0 to 10 where 0 is no effect and 10 is complete control
[10] = Rate 250 g/ha, Postemergence, scale of 0 to 10 where 0 is no effect and 10 is complete control
[11] = Rate 500 g/ha, Postemergence, scale 0 to 10, 0 no effect, 10 complete control

CCN(C(=O)n1oc(=O)n(C2CC2)c1=O)C1CCCCC1 [Compound 298]
Ducksalad plant response rating (duck salad; [1]): 0 | Ducksalad plant response rating (duck salad; [2]): 0 | Ducksalad plant response rating (duck salad; [3]): 0 | Ducksalad plant response rating (duck salad; [4]): 0 | S. Flatsedge plant response rating (smallflower flatsedge; [1]): 0 | S. Flatsedge plant response rating (smallflower flatsedge; [2]): 0 | S. Flatsedge plant response rating (smallflower flatsedge; [3]): 0 | S. Flatsedge plant response rating (smallflower flatsedge; [4]): 0 | Soybean plant response rating (soybean; [5]): 0 | Soybean plant response rating (0 to 10 scale) (soybean; Preemergence, Rate 125 g/ha): 0 | Soybean plant response rating (soybean; [6]): 0 | Plant response rating, Soybean (soybean; [7]): 0 | Soybean plant response rating (soybean; [8]): 0 | Soybean plant response rating (soybean; [9]): 3 | Plant response rating, Soybean (soybean; [10]): 3 | Velvetleaf plant response rating (velvetleaf; [5]): 0 | Velvetleaf plant response rating (0 to 10 scale) (velvetleaf; Preemergence, Rate 125 g/ha): 0 | Velvetleaf plant response rating (velvetleaf; [6]): 0 | Plant response rating, Velvetleaf (velvetleaf; [7]): 0 | Velvetleaf plant response rating (velvetleaf; [8]): 0 | Velvetleaf plant response rating (velvetleaf; [9]): 0 | Plant response rating, Velvetleaf (velvetleaf; [10]): 0 | Nutsedge plant response rating (purple nutsedge; [5]): 0 | Nutsedge plant response rating (0 to 10 scale) (purple nutsedge; Preemergence, Rate 125 g/ha): 0 | Nutsedge plant response rating (purple nutsedge; [6]): 0 | Plant response rating, Nutsedge (purple nutsedge; [7]): 0 | Nutsedge plant response rating (purple nutsedge; [8]): 0 | Nutsedge plant response rating (purple nutsedge; [9]): 0 | Plant response rating, Nutsedge (purple nutsedge; [10]): 0 | B. signalgrass plant response rating (surinam grass; [5]): 0 | B. signalgrass plant response rating (0 to 10 scale, 0 is no effect, 10 is complete control) (surinam grass; Preemergence, Rate 125 g/ha): 0 | B. signalgrass plant response rating (surinam grass; [6]): 0 | Plant response rating, B. signalgrass (surinam grass; [7]): 0 | B. signalgrass plant response rating (surinam grass; [8]): 0 | B. signalgrass plant response rating (surinam grass; [9]): 0 | Plant response rating, B. signalgrass (surinam grass; [10]): 0 | B. signalgrass plant response rating (surinam grass; [11]): 0 | Wheat plant response rating (wheat; [5]): 0 | Wheat plant response rating (0 to 10 scale) (wheat; Preemergence, Rate 125 g/ha): 0 | Wheat plant response rating (wheat; [6]): 0 | Plant response rating, Wheat (wheat; [7]): 0 | Wheat plant response rating (wheat; [8]): 0 | Wheat plant response rating (wheat; [9]): 0 | Plant response rating, Wheat (wheat; [10]): 0 | Morningglory plant response rating (morningglory; [5]): 0 | Morningglory plant response rating (0 to 10 scale) (morningglory; Preemergence, Rate 125 g/ha): 0 | Morningglory plant response rating (morningglory; [6]): 0 | Plant response rating, Morningglory (morningglory; [7]): 0 | Morningglory plant response rating (morningglory; [8]): 0 | Morningglory plant response rating (morningglory; [9]): 3 | Plant response rating, Morningglory (morningglory; [10]): 3 | Corn plant response rating (corn; [5]): 0 | Corn plant response rating (0 to 10 scale) (corn; Preemergence, Rate 125 g/ha): 0 | Corn plant response rating (corn; [6]): 0 | Plant response rating, Corn (corn; [7]): 0 | Corn plant response rating (corn; [8]): 0 | Corn plant response rating (corn; [9]): 0 | Plant response rating, Corn (corn; [10]): 0 | Corn plant response rating (corn; [11]): 0 | Rice plant response rating (rice; [1]): 0 | Rice plant response rating (rice; [2]): 0 | Rice plant response rating (rice; [3]): 0 | Rice plant response rating (rice; [4]): 0 | Bedstraw plant response rating (0 to 10 scale) (bedstraw; Preemergence, Rate 125 g/ha): 0 | Bedstraw plant response rating (bedstraw; Rate 62 g/ha, scale 0 to 10 (0 no effect, 10 complete control)): 0 | Bedstraw plant response rating (bedstraw; Rate 125 g/ha, scale of 0 to 10 where 0 is no effect and 10 is complete control): 0 | Rape plant response rating (rape; [5]): 0 | Rape plant response rating (0 to 10 scale) (rape; Preemergence, Rate 125 g/ha): 0 | Rape plant response rating (rape; [6]): 0 | Plant response rating, Rape (rape; [7]): 0 | Rape plant response rating (rape; [8]): 0 | Rape plant response rating (rape; [9]): 0 | Plant response rating, Rape (rape; [10]): 0 | Crabgrass plant response rating (crabgrass; [5]): 0 | Crabgrass plant response rating (0 to 10 scale) (crabgrass; Preemergence, Rate 125 g/ha): 0 | Crabgrass plant response rating (crabgrass; [6]): 0 | Plant response rating, Crabgrass (crabgrass; [7]): 0 | Crabgrass plant response rating (crabgrass; [8]): 0 | Crabgrass plant response rating (crabgrass; [9]): 0 | Plant response rating, Crabgrass (crabgrass; [10]): 0 | Blackgrass plant response rating (blackgrass; [5]): 0 | Blackgrass plant response rating (blackgrass; [6]): 0 | Plant response rating, Blackgrass (blackgrass; [7]): 0 | Blackgrass plant response rating (blackgrass; [8]): 0 | Blackgrass plant response rating (blackgrass; [9]): 0 | Plant response rating, Blackgrass (blackgrass; [10]): 0 | Blackgrass plant response rating (blackgrass; [11]): 0 | Giant foxtail plant response rating (giant foxtail; [5]): 0 | Giant foxtail plant response rating (0 to 10 scale) (giant foxtail; Preemergence, Rate 125 g/ha): 0 | Giant foxtail plant response rating (giant foxtail; [8]): 0 | Giant foxtail plant response rating (giant foxtail; [9]): 0 | Plant response rating, Giant foxtail (giant foxtail; [10]): 0 | Wild oats plant response rating (wild oat; [5]): 0 | Wild oats plant response rating (0 to 10 scale) (wild oat; Preemergence, Rate 125 g/ha): 0 | Wild oats plant response rating (wild oat; [6]): 0 | Plant response rating, Wild oats (wild oat; [7]): 0 | Wild oats plant response rating (wild oat; [8]): 0 | Wild oats plant response rating (wild oat; [9]): 0 | Plant response rating, Wild oats (wild oat; [10]): 0
